Columns and labels:
[1] = biological target: T1, KRAS G12D (Homo sapiens, UniProt P01116, G12D); assay: KRAS G12D HiBit assay; type: cell-based; details: AsPc-1-KRAS (G12D)-HiBit-KI cell, compound treatment for 24 hours, absolute DC50
T1 construct: AsPc-1-KRAS (G12D)-HiBit-KI cell (Pharmaron); host or cells: AsPc-1-KRAS (G12D)-HiBit-KI cells (HiBiT knock-in at the endogenous KRAS locus)
Outline: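 HiBiT luminescence, detected by adding lytic buffer, substrate and LgBiT protein, served as the KRAS G12D read-out. Compounds, serially diluted 3-fold over 10 points from 0.3 mM DMSO stock, were on cells for 24 h; percent inhibition normalized to cells given 0.1% DMSO only.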

[2] = biological target: T2, KRAS G12V (Homo sapiens, UniProt P01116, G12V); assay: KRAS G12V HiBit assay; type: cell-based; details: SW620-KRAS (G12V)-HiBit-KI cells, compound treatment for 24 hours, class symbols
T2 construct: SW620-KRAS (G12V)-HiBit-KI cell (Pharmaron); host or cells: SW620-KRAS (G12V)-HiBit-KI cells (HiBiT knock-in at the endogenous KRAS locus)
Outline: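 Luminescence from lytic Nano-Glo HiBiT detection with LgBiT read KRAS G12V levels after 24 h compound exposure. Dilutions were 10-point, 3-fold, from a 0.3 mM DMSO stock. Degradation activity was normalised to cells given 0.1% DMSO alone.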

T1 sequence (P01116 1-188 isoform P01116-2 G12D): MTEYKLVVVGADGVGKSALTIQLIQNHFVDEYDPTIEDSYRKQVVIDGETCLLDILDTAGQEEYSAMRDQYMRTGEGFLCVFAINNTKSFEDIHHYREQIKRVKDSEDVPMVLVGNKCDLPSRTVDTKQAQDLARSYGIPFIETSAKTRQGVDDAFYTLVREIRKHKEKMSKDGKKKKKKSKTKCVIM
T2 sequence (P01116 1-188 isoform P01116-2 G12V): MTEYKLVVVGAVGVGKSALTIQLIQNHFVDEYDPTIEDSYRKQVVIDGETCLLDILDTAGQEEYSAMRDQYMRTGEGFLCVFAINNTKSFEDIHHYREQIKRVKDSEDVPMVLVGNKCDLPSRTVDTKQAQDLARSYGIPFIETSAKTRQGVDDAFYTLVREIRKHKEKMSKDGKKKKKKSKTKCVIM

Cn1c(=O)n(C2CCC(=O)NC2=O)c2ccc(C3CCN(C4CC5(CCN(C(=O)OC[C@@H]6CC[C@]7(COc8nc(N9CCC[C@@](C)(O)C9)c9cnc(-c%10cc(O)cc%11cccc(Cl)c%10%11)c(F)c9n8)CCCN67)CC5)C4)CC3)cc21 (stereo partly drawn) [Compound 338, ((3S,7aS)-7a-(((7-(8-chloro-3-hydroxynaphthalen-1-yl)-8-fluoro-4-((R)-3-hydroxy-3-methylpiperidin-1-yl)pyrido[4,3-d]pyrimidin-2-yl)oxy)methyl)hexahydro-1H-pyrrolizin-3-yl)methyl 2-(4-(1-(2,6-dioxopiperidin-3-yl)-3-methyl-2-oxo-2,3-dihydro-1H-benzo[d]imidazol-5-yl)piperidin-1-yl)-7-azaspiro[3.5]nonane-7-carboxylate]
DC50 ([1]; class symbols): < 100 nM
DC50 [2]: < 10 nM

CCc1c(F)ccc2cc(O)cc(-c3ncc4c(N5CCC[C@H]5CO)nc(OC[C@@]56CCCN5[C@H](COC(=O)N5CCC7(CC5)CC(N5CCC(c8ccc9c(c8)n(C)c(=O)n9C8CCC(=O)NC8=O)CC5)C7)CC6)nc4c3F)c12 (stereo partly drawn) [Compound 351, ((3S,7aS)-7a-(((7-(8-ethyl-7-fluoro-3-hydroxynaphthalen-1-yl)-8-fluoro-4-((S)-2-(hydroxymethyl)pyrrolidin-1-yl)pyrido[4,3-d]pyrimidin-2-yl)oxy)methyl)hexahydro-1H-pyrrolizin-3-yl)methyl 2-(4-(1-(2,6-dioxopiperidin-3-yl)-3-methyl-2-oxo-2,3-dihydro-1H-benzo[d]imidazol-5-yl)piperidin-1-yl)-7-azaspiro[3.5]nonane-7-carboxylate]
DC50 ([1]; class symbols): < 100 nM
DC50 [2]: < 10 nM

CCc1c(F)ccc2cc(O)cc(-c3ncc4c(N5CCC[C@@H]5CO)nc(OC[C@@]56CCCN5[C@H](COC(=O)N5CCC7(CC5)CC(N5CCC(c8ccc9c(c8)n(C)c(=O)n9C8CCC(=O)NC8=O)CC5)C7)CC6)nc4c3F)c12 (stereo partly drawn) [Compound 352, ((3S,7aS)-7a-(((7-(8-ethyl-7-fluoro-3-hydroxynaphthalen-1-yl)-8-fluoro-4-((R)-2-(hydroxymethyl)pyrrolidin-1-yl)pyrido[4,3-d]pyrimidin-2-yl)oxy)methyl)hexahydro-1H-pyrrolizin-3-yl)methyl 2-(4-(1-(2,6-dioxopiperidin-3-yl)-3-methyl-2-oxo-2,3-dihydro-1H-benzo[d]imidazol-5-yl)piperidin-1-yl)-7-azaspiro[3.5]nonane-7-carboxylate]
DC50 ([1]; class symbols): < 100 nM
DC50 [2]: < 10 nM

CCc1c(F)ccc2cc(O)cc(-c3ncc4c(N5CCC[C@H](O)C5)nc(OC[C@@]56CCCN5[C@H](COC(=O)N5CCC7(CC5)CC(N5CCC(c8ccc9c(c8)n(C)c(=O)n9C8CCC(=O)NC8=O)CC5)C7)CC6)nc4c3F)c12 (stereo partly drawn) [Compound 354, ((3S,7aS)-7a-(((7-(8-ethyl-7-fluoro-3-hydroxynaphthalen-1-yl)-8-fluoro-4-((S)-3-hydroxypiperidin-1-yl)pyrido[4,3-d]pyrimidin-2-yl)oxy)methyl)hexahydro-1H-pyrrolizin-3-yl)methyl 2-(4-(1-(2,6-dioxopiperidin-3-yl)-3-methyl-2-oxo-2,3-dihydro-1H-benzo[d]imidazol-5-yl)piperidin-1-yl)-7-azaspiro[3.5]nonane-7-carboxylate]
DC50 ([1]; class symbols): < 100 nM
DC50 [2]: < 10 nM

CCc1c(F)ccc2cc(O)cc(-c3ncc4c(N5CCC(O)CC5)nc(OC[C@@]56CCCN5[C@H](COC(=O)N5CCC7(CC5)CC(N5CCC(c8ccc9c(c8)n(C)c(=O)n9C8CCC(=O)NC8=O)CC5)C7)CC6)nc4c3F)c12 (stereo partly drawn) [Compound 358, ((3S,7aS)-7a-(((7-(8-ethyl-7-fluoro-3-hydroxynaphthalen-1-yl)-8-fluoro-4-(4-hydroxypiperidin-1-yl)pyrido[4,3-d]pyrimidin-2-yl)oxy)methyl)hexahydro-1H-pyrrolizin-3-yl)methyl 2-(4-(1-(2,6-dioxopiperidin-3-yl)-3-methyl-2-oxo-2,3-dihydro-1H-benzo[d]imidazol-5-yl)piperidin-1-yl)-7-azaspiro[3.5]nonane-7-carboxylate]
DC50 ([1]; class symbols): < 100 nM
DC50 [2]: < 10 nM

CCc1c(F)ccc2cc(O)cc(-c3ncc4c(N5CCC[C@@](C)(O)C5)nc(OC[C@@]56CCCN5[C@H](COC(=O)N5CCC(N7CC8(CCN(c9ccc%10c(c9)n(C)c(=O)n%10C9CCC(=O)NC9=O)CC8)C7)CC5)CC6)nc4c3F)c12 (stereo partly drawn) [Compound 362, ((3S,7aS)-7a-(((7-(8-ethyl-7-fluoro-3-hydroxynaphthalen-1-yl)-8-fluoro-4-((R)-3-hydroxy-3-methylpiperidin-1-yl)pyrido[4,3-d]pyrimidin-2-yl)oxy)methyl)hexahydro-1H-pyrrolizin-3-yl)methyl 4-(7-(1-(2,6-dioxopiperidin-3-yl)-3-methyl-2-oxo-2,3-dihydro-1H-benzo[d]imidazol-5-yl)-2,7-diazaspiro[3.5]nonan-2-yl)piperidine-1-carboxylate]
DC50 ([1]; class symbols): < 100 nM
DC50 [2]: < 10 nM

CCc1c(F)ccc2cc(O)cc(-c3ncc4c(N5CCC[C@@](C)(O)C5)nc(OC[C@@]56CCCN5[C@H](COC(=O)N5CCC(N7CC8(CCC(c9ccc%10c(c9)n(C)c(=O)n%10C9CCC(=O)NC9=O)CC8)C7)CC5)CC6)nc4c3F)c12 (stereo partly drawn) [Compound 363, ((3S,7aS)-7a-(((7-(8-ethyl-7-fluoro-3-hydroxynaphthalen-1-yl)-8-fluoro-4-((R)-3-hydroxy-3-methylpiperidin-1-yl)pyrido[4,3-d]pyrimidin-2-yl)oxy)methyl)hexahydro-1H-pyrrolizin-3-yl)methyl 4-(7-(1-(2,6-dioxopiperidin-3-yl)-3-methyl-2-oxo-2,3-dihydro-1H-benzo[d]imidazol-5-yl)-2-azaspiro[3.5]nonan-2-yl)piperidine-1-carboxylate]
DC50 ([1]; class symbols): < 100 nM
DC50 [2]: < 10 nM

CCc1c(F)ccc2cc(O)cc(-c3ncc4c(N5CCC[C@@](C)(O)C5)nc(OC[C@@]56CCCN5[C@H](COC(=O)N5CCC(CN7CC8(CCC(c9ccc%10c(c9)n(C)c(=O)n%10C9CCC(=O)NC9=O)CC8)C7)CC5)CC6)nc4c3F)c12 (stereo partly drawn) [Compound 364, ((3S,7aS)-7a-(((7-(8-ethyl-7-fluoro-3-hydroxynaphthalen-1-yl)-8-fluoro-4-((R)-3-hydroxy-3-methylpiperidin-1-yl)pyrido[4,3-d]pyrimidin-2-yl)oxy)methyl)hexahydro-1H-pyrrolizin-3-yl)methyl 4-((7-(1-(2,6-dioxopiperidin-3-yl)-3-methyl-2-oxo-2,3-dihydro-1H-benzo[d]imidazol-5-yl)-2-azaspiro[3.5]nonan-2-yl)methyl)piperidine-1-carboxylate]
DC50 ([1]; class symbols): < 100 nM
DC50 [2]: < 10 nM

CCc1c(F)ccc2cc(O)cc(-c3ncc4c(N5CCC[C@@](C)(O)C5)nc(OC[C@@]56CCCN5[C@H](COC(=O)N5CCC(N7CC8(CC(c9ccc%10c(c9)n(C)c(=O)n%10C9CCC(=O)NC9=O)C8)C7)CC5)CC6)nc4c3F)c12 (stereo partly drawn) [Compound 365, ((3S,7aS)-7a-(((7-(8-ethyl-7-fluoro-3-hydroxynaphthalen-1-yl)-8-fluoro-4-((R)-3-hydroxy-3-methylpiperidin-1-yl)pyrido[4,3-d]pyrimidin-2-yl)oxy)methyl)hexahydro-1H-pyrrolizin-3-yl)methyl 4-(6-(1-(2,6-dioxopiperidin-3-yl)-3-methyl-2-oxo-2,3-dihydro-1H-benzo[d]imidazol-5-yl)-2-azaspiro[3.3]heptan-2-yl)piperidine-1-carboxylate]
DC50 ([1]; class symbols): < 100 nM
DC50 [2]: < 10 nM

CCc1c(F)ccc2cc(O)cc(-c3ncc4c(N5CCC[C@@](C)(O)C5)nc(OC[C@@]56CCCN5[C@H](COC(=O)N5CCC(CN7CC8(CC(c9ccc%10c(c9)n(C)c(=O)n%10C9CCC(=O)NC9=O)C8)C7)CC5)CC6)nc4c3F)c12 (stereo partly drawn) [Compound 366, ((3S,7aS)-7a-(((7-(8-ethyl-7-fluoro-3-hydroxynaphthalen-1-yl)-8-fluoro-4-((R)-3-hydroxy-3-methylpiperidin-1-yl)pyrido[4,3-d]pyrimidin-2-yl)oxy)methyl)hexahydro-1H-pyrrolizin-3-yl)methyl 4-((6-(1-(2,6-dioxopiperidin-3-yl)-3-methyl-2-oxo-2,3-dihydro-1H-benzo[d]imidazol-5-yl)-2-azaspiro[3.3]heptan-2-yl)methyl)piperidine-1-carboxylate]
DC50 ([1]; class symbols): < 100 nM
DC50 [2]: 10 to 100 nM

C#Cc1c(F)ccc2cc(O)cc(-c3ncc4c(N5CCC[C@@](C)(O)C5)nc(OC[C@@]56CCCN5[C@H](COC(=O)N5CCN(CC#CCOc7cccc8c7n(C)c(=O)n8C7CCC(=O)NC7=O)CC5)CC6)nc4c3F)c12 (stereo partly drawn) [Compound 376, ((3S,7aS)-7a-(((7-(8-ethynyl-7-fluoro-3-hydroxynaphthalen-1-yl)-8-fluoro-4-((R)-3-hydroxy-3-methylpiperidin-1-yl)pyrido[4,3-d]pyrimidin-2-yl)oxy)methyl)hexahydro-1H-pyrrolizin-3-yl)methyl 4-(4-((1-(2,6-dioxopiperidin-3-yl)-3-methyl-2-oxo-2,3-dihydro-1H-benzo[d]imidazol-4-yl)oxy)but-2-yn-1-yl)piperazine-1-carboxylate]
DC50 ([1]; numeric bounds given in place of class symbols): > 100 nM
DC50 [2]: > 100 nM
